Measurements as given in the supplement of paper PMC5844555.

How the values were obtained:
Test in all cases: 3' UTR reporter interaction score (median-centred robust z-score of log2 firefly/Renilla activity); higher = less repression of the 3' UTR reporter
Details in all cases: HEK293T; 48 h
TP53 = system: TP53
Method in brief: (§1)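 Using DharmaFECT Duo, HEK293T cells (10,000/well, 96-well plates) were co-transfected with 2.5 pmol miRNA mimic, 100 ng firefly luc2P reporter containing the gene's 3' UTR and 20 ng Renilla pRL-TK control, and dual-luciferase activity was read 48 h later. The interaction score is the log firefly/Renilla ratio as a per-plate robust z-score (median, median absolute deviation), median-centred per miRNA, averaged over at least two independent screens; lower, more negative values indicate interaction.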

PHF6 = system: PHF6
Method in brief: as §1

MYB = system: MYB
Method in brief: as §1

HRAS = system: HRAS
Method in brief: as §1

ZEB2 = system: ZEB2
Method in brief: as §1

MYC = system: MYC
Method in brief: as §1

EZH2 = system: EZH2
Method in brief: as §1

BRCA2 = system: BRCA2
Method in brief: as §1

FBXW7 = system: FBXW7
Method in brief: as §1

PHOX2B = system: PHOX2B
Method in brief: as §1

MYT1L = system: MYT1L
Method in brief: as §1

NOTCH1 = system: NOTCH1
Method in brief: as §1

MYCN = system: MYCN
Method in brief: as §1

RB1 = system: RB1
Method in brief: as §1

| Sequence | 3' UTR reporter interaction score (TP53) | 3' UTR reporter interaction score (PHF6) | 3' UTR reporter interaction score (MYB) | 3' UTR reporter interaction score (HRAS) | 3' UTR reporter interaction score (ZEB2) | 3' UTR reporter interaction score (MYC) | 3' UTR reporter interaction score (EZH2) | 3' UTR reporter interaction score (BRCA2) | 3' UTR reporter interaction score (FBXW7) | 3' UTR reporter interaction score (PHOX2B) | 3' UTR reporter interaction score (MYT1L) | 3' UTR reporter interaction score (NOTCH1) | 3' UTR reporter interaction score (MYCN) | 3' UTR reporter interaction score (RB1) |
| --- | --- | --- | --- | --- | --- | --- | --- | --- | --- | --- | --- | --- | --- | --- |
| CUGAAGUGAUGUGUAACUGAUCAG | 0.516 | -0.442 | -1.34 | 0.253 | -0.764 | 0.252 | 0.809 | -1.33 | -0.0116 | -1.07 | 1.21 | 2.11 | -0.441 | -0.534 |
| UUGGUCCCCUUCAACCAGCUA | -0.692 | -1.46 | -0.0299 | 1.24 | -0.0455 | 0.62 | 1.2 | -0.159 | 1.01 | -0.834 | 0.425 | -0.864 | 0.0097 | -0.167 |
| GUUGGAGGAUGAAAGUACGGAGUGAU | -1.24 | 0.571 | 0.331 | -0.155 | 0.0694 | -0.154 | 0.25 | -1.61 | 1.07 | 1.82 | -0.433 | -0.207 | 0.4 | 0.55 |
| UGGCAGUGUCUUAGCUGGUUGUU | 1.68 | -0.889 | -2.9 | 1.33 | 0.283 | -0.668 | 0.955 | 0.486 | -0.0417 | -0.535 | 1.45 | -3.59 | -3.64 | -0.641 |
| GCGUGCGCCGGCCGGCCGCC | 0.961 | 1.71 | -0.399 | -0.392 | -0.647 | -1.82 | 0.589 | 0.432 | 0.516 | 0.436 | -0.142 | -0.272 | -1.25 | -0.23 |
| UUCACCACCUUCUCCACCCAGC | -0.656 | -0.605 | 0.974 | 0.00141 | 1.21 | 0.119 | 0.425 | -0.718 | -2.88 | 0.365 | 0.639 | -0.224 | 0.95 | 0.874 |
| GCACAUUACACGGUCGACCUCU | -0.315 | 0.116 | 0.761 | -0.25 | 1.19 | -0.285 | -0.1 | -0.107 | 0.52 | -1.13 | -0.0362 | -0.223 | 0.192 | -0.0189 |
| UCCAGCAUCAGUGAUUUUGUUGA | -0.53 | 0.0153 | 0.387 | -0.335 | 0.915 | -0.461 | 0.0592 | 0.64 | -0.0681 | 1.43 | -0.429 | -0.191 | -0.105 | -0.243 |
| ACAUAGAGGAAAUUCCACGUUU | 1.11 | 1.27 | -0.866 | -0.449 | -1.25 | -0.782 | 0.213 | 1.12 | -1.56 | -1.91 | -0.235 | 0.306 | 0.704 | 0.821 |
| UAUGGCUUUUCAUUCCUAUGUG | 0.354 | -0.00424 | -0.208 | -0.329 | 0.267 | -0.427 | 0.203 | -1.68 | 0.501 | 0.949 | 0.255 | 0.259 | 0.938 | -1.89 |
| AAGUGCUUCCUUUUAGAGGGUU | -1 | 1.07 | -0.72 | -0.113 | 0.00821 | -0.869 | -1.25 | -0.82 | 0.635 | 0.633 | 0.457 | 0.466 | 0.896 | 1.62 |
| CUGGCCCUCUCUGCCCUUCCGU | -0.27 | -2.64 | 0.857 | 1.31 | 0.72 | 1.14 | 0.421 | 0.17 | -0.17 | -0.839 | 0.19 | -0.752 | 1.01 | -0.329 |
| CAGUAACAAAGAUUCAUCCUUGU | -0.52 | -3.72 | 0.361 | 0.555 | 0.308 | -0.308 | 0.69 | -0.621 | -0.152 | -1.19 | -0.326 | -0.945 | 1.32 | -3.18 |
| UCAAAUGCUCAGACUCCUGU | -0.221 | 0.837 | -3.31 | 0.546 | -1 | -0.559 | 0.251 | -3.48 | 0.918 | 0.0556 | -0.983 | -0.149 | 1.14 | 1.29 |
| CCCAGUGUUCAGACUACCUGUUC | -0.337 | 0.112 | 1.64 | -0.0015 | -0.517 | 0.666 | -0.25 | 0.218 | -0.85 | -0.196 | 2.99 | 0.374 | 0.198 | -1.81 |
| UCUAGGCUGGUACUGCUGA | 0.681 | -0.473 | 0.874 | -0.226 | 0.447 | -0.9 | -0.385 | -0.172 | 0.217 | -0.185 | 0.751 | -0.326 | 0.628 | -0.812 |
| AGGGUAAGCUGAACCUCUGAU | 0.182 | -0.384 | 0.366 | -0.74 | -0.308 | -0.643 | -0.149 | 0.0158 | 2.4 | 1.64 | 0.432 | -0.542 | 1.35 | -1.03 |
| UGAUUGGUACGUCUGUGGGUAGA | 0.443 | -0.0836 | 1.17 | 0.535 | -0.485 | -2.85 | -0.0408 | -0.144 | -0.747 | -0.434 | 0.161 | -4.51 | 0.569 | 0.153 |
| CUACAAAGGGAAGCACUUUCUC | -1.31 | 0.716 | 0.666 | -1.25 | -3.59 | 0.411 | 0.77 | -0.805 | -0.7 | 1.76 | 0.757 | 0.148 | -0.614 | 0.032 |
